Assay results from patent US20240381872A1, “SUBSTITUTED 2,3-DIHYDRO[1,3]THIAZOLO[4,5-B]PYRIDINES, SALTS THEREOF AND THEIR USE AS HERBICIDALLY ACTIVE SUBSTANCES” (BAYER AKTIENGESELLSCHAFT, priority 2021, published 2024).

What was measured:
Format in all cases: in vivo
[1] = system: Brassica napus (BRSNW); assay: Pre-emergence effects on crop plants, section D (Table D5); conditions: application rate 80 g/ha; visual grading after ca. 3 weeks
Summary of the method: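 Read-out: visual percent injury versus untreated controls at ca. 3 weeks (0% as control, 100% dead). Treatment: aqueous WP/EC suspension or emulsion with 0.5% additive, 600 l/ha, on soil covering seeds in sandy loam, at 320 g/ha or below, under optimum greenhouse conditions.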

[2] = system: Alopecurus myosuroides (ALOMY); assay: Herbicidal post-emergence action, section B (Table B2); conditions: rated visually about 3 weeks after treatment vs untreated controls, 100% = plants have died, 0% = like control plants; for pest or weed control at 1280 g/ha: application rate 1280 g/ha
Protocol: (§1) Seeds of mono- and dicotyledonous weed plants were placed in plastic pots in sandy loam soil (doubly sown with in each case one species of mono- or dicotyledonous weed plants per pot), covered with soil and cultivated in a greenhouse under controlled growth conditions. 2 to 3 weeks after sowing, the test plants were treated at the one-leaf stage. The compounds of the invention, formulated in the form of wettable powders (WP) or as emulsion concentrates (EC), were applied onto the green parts of the plants as aqueous suspension or emulsion with addition of 0.5% additive at a water application rate of 600 liters per hectare (converted). After the test plants had been kept in the greenhouse under optimum growth conditions for about 3 weeks, the activity of the preparations was rated visually in comparison to untreated controls. For example, 100% activity=the plants have died, 0% activity=like control plants.

[3] = system: Setaria viridis (SETVI); assay: Herbicidal post-emergence action, section E (Table E8); conditions: visual assessment ca. 3 weeks after spraying
Description: Seeds of mono- and dicotyledonous weed plants and crop plants were sown, in plastic or organic planting pots, in sandy loam, covered with soil and grown in a greenhouse under controlled growth conditions. 2 to 3 weeks after sowing, the test plants were sprayed in the single-leaf stage. The compounds according to the invention, formulated in form of wettable powders (WP) or as emulsifiable concentrates (EC), were sprayed onto the green plant parts as aqueous suspension or emulsion, with the addition of 0.5% of an additive, at an application rate of 600 l of water/ha (converted). The test plants were placed in the greenhouse for ca. 3 weeks under optimum growth conditions, and then the effect of the preparations was assessed visually in comparison with untreated controls (herbicidal effect in percent (%): 100% effect=plants have died off, 0% effect=as control plants).

[4] = system: Matricaria inodora (MATIN); assay: Herbicidal post-emergence action, section B (Table B6); conditions: application rate 1280 g/ha, visual rating about 3 weeks after treatment vs untreated controls; for pest or weed control at 1280 g/ha: Tripleurospermum inodorum, post-emergence, 504 h, read-out: post-emergence activity against MATIN in %
Protocol: as §1

[5] = system: Avena fatua (AVEFA); assay: Herbicidal pre-emergence action, section C (Table C4); conditions: 504 h, application rate 320 g/ha, visual grading ca. 3 weeks after treatment vs untreated controls, 100% = plants have died off, 0% = as control plants, read-out: pre-emergence activity against AVEFA
Description: (§2) Seeds of mono- and dicotyledonous weed plants and crop plants were sown, in plastic or organic planting pots, in sandy loam and covered with soil. The compounds according to the invention, formulated in the form of wettable powders (WP) or as emulsifiable concentrates (EC), were applied to the surface of the covering soil as aqueous suspension or emulsion, with the addition of 0.5% of an additive, at an application rate of 600 l of water/ha (converted). Following treatment, the pots were placed in a greenhouse and kept under optimum growth conditions for the test plants. The visual grading of the damage to the test plants was carried out after ca. 3 weeks in comparison to untreated controls (herbicidal effect in percent (%): 100% effect=plants have died off, 0% effect=as control plants).

[6] = system: Oryza sativa (ORYZA); assay: Pre-emergence effects on crop plants, section D (Table D3); conditions: application rate 320 g/ha; visual grading after ca. 3 weeks
Description: Seeds of mono- and dicotyledonous weed plants and crop plants were sown, in plastic or organic planting pots, in sandy loam and covered with soil. The compounds according to the invention, formulated in the form of wettable powders (WP) or as emulsifiable concentrates (EC), were applied to the surface of the covering soil as aqueous suspension or emulsion, with the addition of 0.5% of an additive, at an application rate of 600 l of water/ha (converted).
Following treatment, the pots were placed in a greenhouse and kept under optimum growth conditions for the test plants. The visual grading of the damage to the test plants was carried out after ca. 3 weeks in comparison to untreated controls (herbicidal effect in percent (%): 100% effect=plants have died off, 0% effect=as control plants).
Tables D1 to D5 below show the effects of various compounds of the general formula (I) according to Table 1 on various crop plants and an application rate corresponding to 320 g/ha or below obtained by the experimental procedure mentioned above in Biological Examples, Section C.

[7] = system: Viola tricolor (VIOTR); assay: Herbicidal pre-emergence action, section C (Table C9); conditions: Viola tricolor, pre-emergence, 504 h; application rate 80 g/ha; visual grading after ca. 3 weeks; read-out: pre-emergence activity against VIOTR in %
Description: as §2

[8] = system: Brassica napus (BRSNW); assay: Post-emergence effects on crop plants, section F (Table F5); conditions: Brassica napus, 504 h, read-out: post-emergence activity against BRSNW in %
Summary of the method: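 Sandy loam, greenhouse, controlled conditions. Spray at single-leaf stage (2–3 wk post-sowing); WP/EC aqueous suspension/emulsion + 0.5% additive, 600 l water/ha; rate ≤320 g/ha. Visual scoring ca. 3 wk post-spray vs untreated, % effect.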

[9] = Alopecurus myosuroides, post-emergence, 504 h, read-out: post-emergence activity against ALOMY
[10] = Setaria viridis, 504 h, application rate 320 g/ha, read-out: post-emergence activity against SETVI in %

For `COC(=O)CCC(=O)N1CSc2cc(Cl)c(-c3ccccc3F)nc21` [Example I-003], the “pre-emergence activity against BRSNW in % (crop plant damage)” value [1] was 20%, the “post-emergence activity against ALOMY” value ([2]; application rate 320 g/ha) was 100% and the “post-emergence activity against SETVI in %” value ([3]; application rate 320 g/ha) was 80%.
Molecule `Cc1cc2c(nc1-c1ccccc1F)NCS2` [Example I-007, 5-(2-fluorophenyl)-6-methyl-2,3-dihydro[1,3]thiazolo[4,5-b]pyridine] has a pest or weed control at 320 g/ha ([2]; Alopecurus myosuroides, post-emergence, 504 h, application rate 320 g/ha, read-out: post-emergence activity against ALOMY) of 90%, a pest or weed control at 80 g/ha ([3]; Setaria viridis, 504 h, application rate 80 g/ha, read-out: post-emergence activity against SETVI in %) of 90% and a pest or weed control at 1280 g/ha [4] of 90%. It also gave a pest or weed control at 320 g/ha [5] of 80%.
In the case of `COC(=O)CCC(=O)N1CSc2cc(C)c(-c3ccccc3F)nc21` [Example I-010], the “post-emergence activity against MATIN in %” value [4] is reported as 90%.
With `Cc1cc2c(nc1-c1cccc(F)c1F)NCS2` [Example I-029, 5-(2,3-difluorophenyl)-6-methyl-2,3-dihydro[1,3]thiazolo[4,5-b]pyridine] the pest or weed control at 1280 g/ha [2, 9] was 90%.
`Clc1ccccc1-c1nc2c(cc1Br)SCN2` [Example I-041, 6-bromo-5-(2-chlorophenyl)-2,3-dihydro[1,3]thiazolo[4,5-b]pyridine] was tested, and the pest or weed control at 1280 g/ha [2, 9] was 90% and the “pre-emergence activity against ORYZA in % (crop plant damage)” value [6] was 20%.
In the case of `CCc1ccccc1-c1nc2c(cc1C)[S+]([O-])CN2` (stereo not shown) [Example I-047], the pest or weed control at 80 g/ha [7] is reported as 90% and the crop plant damage (phytotoxicity) in % at 320 g/ha ([8]; application rate 320 g/ha) is reported as 20%.
Work on `Cc1cc2c(nc1-c1ccccc1Cl)NCS2` [Example I-049, 5-(2-chlorophenyl)-6-methyl-2,3-dihydro[1,3]thiazolo[4,5-b]pyridine] yielded a pest or weed control at 320 g/ha [3, 10] of 80%.
With `CC(=O)N1CSc2cc(Br)c(-c3ccccc3Cl)nc21` [Example I-055, 1-[6-bromo-5-(2-chlorophenyl)[1,3]thiazolo[4,5-b]pyridin-3(2H)-yl]ethanone] the “pre-emergence activity against BRSNW in % (crop plant damage)” value [1] was 20%, the “pre-emergence activity against ORYZA in % (crop plant damage)” value [6] was 20% and the crop plant damage (phytotoxicity) in % at 80 g/ha ([8]; application rate 80 g/ha) was 10%.
Molecule `CCS(=O)(=O)N1CSc2cc(C)c(-c3ccccc3F)nc21` [Example I-060, 3-(ethylsulfonyl)-5-(2-fluorophenyl)-6-methyl-2,3-dihydro[1,3]thiazolo[4,5-b]pyridine] has a pest or weed control at 1280 g/ha [2, 9] of 90%, a pest or weed control at 80 g/ha [7] of 90% and a pest or weed control at 320 g/ha [3, 10] of 90%. It also gave a pest or weed control at 1280 g/ha [4] of 90% and a pest or weed control at 320 g/ha [5] of 90%.
